According to patent US20250275910A1, “Cosmetic application of viniferine” (Tomcat International Limited, priority 2021, published 2025):

Key:
[1] = system: human epidermal melanocytes (HEM); assay: Melanin content test on human epidermal melanocytes exposed to blue light; format: cell-based; conditions: total 120 J/cm^2
Protocol: In the following experimental part, the preventive effect of ε-viniferine (trans-ε-viniferine) at different concentrations, on the damage caused by blue light at two wavelengths (412 nm, characteristic of solar blue light and 450 nm, characteristic of blue light from screens) was evaluated by means of a test for determining the melanin content of cells treated with a composition of the invention. In order to determine the maximum concentrations to be tested, the toxicity of different concentrations of the compositions tested was first evaluated via the MTT test, a live cell counting test involving the MTT tetrazolium salt as a reagent and well known to the professional.
The tests were carried out on human epidermal melanocytes (HEM), which are cells that produce melanin and are therefore responsible for skin pigmentation. […]
The HEM cells were cultured at 37° C., in a 5% CO2 atmosphere and treated with a determined concentration of the composition C1 or the composition C2. […]
(§1) The coloring intensity determined by the optical density measured at 405 nm is directly correlated to the melanin content.
(§2) The melanin content is calculated by relating the absorbance value to that of the negative control.
(§3) The percentage variation in melanin content compared to the blank test or the negative control is calculated according to the following equation: […]

[2] = system: human skin explants; assay: Melanin content test on human skin explants exposed to blue light; format: cell-based; conditions: human skin explants treated with C11 or C12, blue light at 412 nm or 450 nm, total 120 J/cm^2
Protocol: The tests were carried out on human skin explants obtained from plastic surgery. The biopsies are divided into explants of 8 mm diameter and kept for survival in complete medium. at 37° C. and in an atmosphere of 5% CO2.
The skin explants are exposed to blue light, at 412 nm or 450 nm or kept in the dark (control) for 5 hours per day, for 3 days, representing a total irradiation of 120 J/cm^2. Before each exposure, the explants are treated overnight with the compositions C11 or C12.
24 hours after the last irradiation, the explants are collected and incubated in a 1 M NaOH solution at 80° C. for 3 hours, allowing the melanin to solubilize. […]
as §1, §2, §3

For `Oc1ccc(/C=C/c2cc(O)cc3c2[C@@H](c2cc(O)cc(O)c2)[C@H](c2ccc(O)cc2)O3)cc1` (relative stereo) [ε-viniferine, trans-ε-viniferine], the “production of melanin (optical density at 405 nm)” value ([1]; HEM cells treated 24 h before exposure to blue light at 412 nm or 450 nm, 5 h per day for 3 days, versus untreated irradiated cells (NT)) was “significantly reduce the production of melanin”, the “melanin content relative to culture not exposed to blue light” value ([1]; HEM cells, blue light at 450 nm) was “lower the melanin content to the content of a culture of melanocytes not exposed to blue light” and the “melanin content relative to explant not exposed to blue light” value [2] was “lower the melanin content to the content of an explant not exposed to blue light”.
